Several values for one entry are separate records, joined by “and”; a condition that tells them apart may be missing. Equal values may be shown once.
How the values were obtained:
[1] = test system: B cells from Buffy Coat; assay: CXCL13-induced B cell migration (transwell); assay type: cell-based, human; conditions: for cell count (migrated B cells): mean of 4 wells
Procedure: PBMC were isolated from Buffy Coat as described above. Cells were washed two times with PBS and then resuspended at 5×10^7/mL in PBS containing 2% FBS and 1 mM EDTA. Further B cell purification was performed via depletion of non-B cells with an EasySep™ Human B Cell Enrichment Kit (STEMCELL Technologies #19054) according to the manufacture's instruction. In brief, 4×10^8 PBMCs in 8 ml isolation buffer were incubated with 400 ul of enrichment cocktail in a 14 mL round-bottom tube for 10 minutes at room temperature. PBMC were further incubated with 600 ul of magnetic particles for 5 minutes at room. For B cell isolation, the tube was placed into the magnet for 5 min and enriched B cells were collected in a fresh 14 ml tube. Cells were then washed and resuspended at 5×10^6/mL in RPMI 1640 medium supplemented with 10% FBS, Gentamycine (50 ug/ml), Insulin-Transferrin-Selenium and P-Mercaptoethanol (50 uM).
Isolated B cells were dispensed to 5 ml round-bottom tube (Costar #352054) and incubated with pre-diluted compound A resulting in a dilution with a final concentration of 10, 1, 0.1 or 0.01 uM. Control samples were pretreated with DMSO to obtain a final concentration of 0.1% DMSO. Samples were mixed thoroughly and incubated in a water bath at 37° C. for 30 minutes. Some 235 ul of CXCL13 (R&D Systems #801-CX) in a dilution with a final concentration of 100 nM was added to the wells of the 96-well transwell receiver plate (Costar #3387). Control wells were filled with 235 ul medium. The 5 um permeable support insert was added to the receiver plate and filled with 80 ul of pre-incubated B cells. Transwell plate was incubated in a humified incubator at 37° C. for 3 h. Permeable support insert was removed and cell number in receiver plate was assessed by flow cytometry.

[2] = test system: Human Peripheral Blood Mononuclear Cells (PBMC); assay: anti-IgM-Dextran-induced IP-10 production of human PBMC; assay type: cell-based; conditions: for IP-10 in culture supernatant: individual donors 1-6; for IP-10 in culture supernatant, mean: mean of 6 donors
From the text: For evaluating the effect of compound A on the production of chemokines relevant for the formation of germinal centers, PBMC were isolated from Buffy Coat (collected through Inter-Regionale Blutspende of the Swiss Red Cross) by standard Ficoll gradient centrifugation using Ficoll-Paque plus (GE healthcare #17-1440-03) in Leucosep tubes (Greiner Bio-one #227289). Cells were washed two times with PBS and then resuspended at 2.2×10^6/mL in RPMI 1640 medium supplemented with 10% FBS, Gentamycine (50 ug/ml), Insulin-Transferrin-Selenium and P-Mercaptoethanol (50 uM).
PBMC were dispensed to 48-well plates (Costar #3548) and incubated with pre-diluted compound A resulting in a dilution with a final concentration of 0.3, 1 or 3 uM. Control samples were pretreated with DMSO to obtain a final concentration of 0.03% DMSO. Samples were mixed thoroughly and incubated in a humified incubator at 37° C. for 1 h. Cells were thereafter stimulated by the addition of the TLR9 agonist ODN M362 (Invivogen, #tlrl-m362) at a final concentration of 30 ug/ml or anti-IgM-Dextran (Finabiosolution #0004) at a final concentration of 2 ug/ml. Control samples were left unstimulated. Samples were mixed thoroughly and incubated in a humified incubator at 37° C. for 24 h.
After the stimulation, culture supernatants were harvested and chemokines quantified by Bio-Plex Multiplex immunoassay (CXCL13; Bio Rad #171 BK12MR2) or MSD V-Plex assay (IP-10; Meso Scale Diagnostics) or according to the manufacturer's instructions.

CCC(=O)N1CC[C@H](Nc2ncnc3c2CN(c2cnc(OC)c(C(F)(F)F)c2)CC3)C1 [Compound A, 1-{(S)-3-[6-(6-Methoxy-5-trifluoromethyl-pyridin-3-yl)-5,6,7,8-tetrahydro-pyrido[4,3-d]pyrimidin-4-ylamino]-pyrrolidin-1-yl}-propan-1-one]
inhibition at 0.01 µM ([1]; Homo sapiens, B-cell, compound A 10 nM): 13% | inhibition at 0.1 µM ([1]; Homo sapiens, B-cell, compound A 100 nM): 39% | inhibition at 1 µM ([1]; Homo sapiens, B-cell, compound A 1000 nM): 52% | inhibition at 10 µM ([1]; Homo sapiens, B-cell, compound A 10000 nM): 79% | cell count (migrated B cells) ([1]; compound A 10 nM): 6165 | cell count (migrated B cells) ([1]; compound A 100 nM): 4556 | cell count (migrated B cells) ([1]; compound A 1000 nM): 3743 | cell count (migrated B cells) ([1]; compound A 10000 nM): 2043 | IP-10 in culture supernatant ([2]; Compound A 300 nM): 79 pg/mL and 32 pg/mL and 37 pg/mL and 1233 pg/mL and 52 pg/mL and 2764 pg/mL | IP-10 in culture supernatant, mean ([2]; Compound A 300 nM): 699 pg/mL | IP-10 in culture supernatant ([2]; Compound A 1000 nM): 71 pg/mL and 29 pg/mL and 42 pg/mL and 1010 pg/mL and 52 pg/mL and 1624 pg/mL | IP-10 in culture supernatant, mean ([2]; Compound A 1000 nM): 471 pg/mL | IP-10 in culture supernatant ([2]; Compound A 3000 nM): 93 pg/mL and 27 pg/mL and 34 pg/mL and 899 pg/mL and 59 pg/mL and 715 pg/mL | IP-10 in culture supernatant, mean ([2]; Compound A 3000 nM): 305 pg/mL | inhibition at 0.3 µM ([2]; Homo sapiens, PBMC, Compound A 300 nM): 12% | inhibition at 1 µM ([2]; Homo sapiens, PBMC, Compound A 1000 nM): 41% | inhibition at 3 µM ([2]; Homo sapiens, PBMC, Compound A 3000 nM): 62%
